# Target: T1, TEC (Homo sapiens, UniProt P42680)
# T1 construct: purchased Thermo Fisher Scientific (Life Technologies) SelectScreen
# Test: SelectScreen LanthaScreen
# Type: binding
# Settings: read-out: % displacement
# How it was run: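 NU5455 was profiled across the SelectScreen Broad panel of kinase activity and binding assays. Z'LYTE reactions such as CSF1R ran at apparent Km ATP, while the Adapta CAMK1 assay used ATP listed as 10. Values are given as percent.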
# T1 sequence (P42680 whole entry): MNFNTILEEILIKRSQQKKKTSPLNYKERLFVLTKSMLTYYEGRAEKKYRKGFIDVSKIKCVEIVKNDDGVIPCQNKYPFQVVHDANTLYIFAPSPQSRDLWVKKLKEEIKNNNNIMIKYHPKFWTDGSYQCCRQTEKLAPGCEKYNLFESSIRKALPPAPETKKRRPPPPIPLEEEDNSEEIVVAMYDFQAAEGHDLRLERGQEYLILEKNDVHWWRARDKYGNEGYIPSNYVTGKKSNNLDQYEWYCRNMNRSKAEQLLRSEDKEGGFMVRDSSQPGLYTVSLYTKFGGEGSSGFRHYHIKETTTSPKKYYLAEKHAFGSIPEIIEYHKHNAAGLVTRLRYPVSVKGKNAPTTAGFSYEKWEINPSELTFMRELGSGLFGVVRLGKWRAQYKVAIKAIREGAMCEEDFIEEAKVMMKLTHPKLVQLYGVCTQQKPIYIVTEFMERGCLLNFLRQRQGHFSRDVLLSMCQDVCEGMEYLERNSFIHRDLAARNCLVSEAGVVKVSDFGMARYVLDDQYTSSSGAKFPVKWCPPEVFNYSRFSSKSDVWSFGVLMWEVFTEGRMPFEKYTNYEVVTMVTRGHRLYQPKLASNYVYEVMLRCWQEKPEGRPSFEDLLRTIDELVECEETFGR
smiles,measurement,value
CN(C(=O)CN1CCOCC1)c1ccc2sc3c(-c4cccc5c(=O)cc(N6CC7CCC(C6)O7)oc45)cccc3c2c1 [NU5455],inhibition at 1 µM,8.1%

# Source: publication PMC6934184, “Selective DNA-PKcs inhibition extends the therapeutic index of localized radiotherapy and chemotherapy” (The Journal of Clinical Investigation, 2019)
